System: HEC-1A cells
Assay: Cytokine/chemokine MultiPlex assay (BioPlex 200) of HEC-1A secretion
Format: cell-based
Details: 24 hours
Excerpt: In the model as provided in this example, a method to assess the pro-inflammatory character of antivirals intended to be applied as mucosal topicals was used.
Epithelial cells are capable of secreting a set of molecules called cytokines and chemokines, which are responsible for the recruitment and activation of immune cells at the site of secretion. This process can be deleterious in the context of sexual transmission of HIV-1 because the recruited cells are the preferred targets of the virus. […] A microbicide candidate should therefore not promote inflammation by activating the production of this type of molecule by the cells directly in contact with the substance (epithelial cells). These secretions can be deleterious in the context of sexual transmission of HIV-1 or HPV and other papillomaviruses because the recruited cells are the preferred targets of the virus. A microbicide candidate must thus not promote inflammation by activating the production of these types of molecules by the cells in contact with the substance (epithelial cells).
After 24 hours of incubation, a panel of 48 inflammation-related cytokines/chemokines is assayed by MultiPlex (BioPlex 200 BioRad) in the basal medium.

zinc tetra-ascorbo-camphorate [C14]
CTACK (0 μM): 4.29 pg/mL | Eotaxin (0 μM): 0.87 pg/mL | FGF (0 μM): 1.515 pg/mL | G-CSF (0 μM): 1.885 pg/mL | GM-CSF (0 μM): 7.005 pg/mL | GROα (0 μM): 2.75 pg/mL | HGF (0 μM): 3.63 pg/mL | IFN-α2 (0 μM): 4.08 pg/mL | IFN-γ (0 μM): 94.255 pg/mL | IL-1rα (0 μM): 18.105 pg/mL | IL-1α (0 μM): 0 pg/mL | IL-1β (0 μM): 0.335 pg/mL | IL-2 (0 μM): 0.25 pg/mL | IL-2rα (0 μM): 4.06 pg/mL | IL-3 (0 μM): 6.785 pg/mL | IL-4 (0 μM): 0.16 pg/mL | IL-5 (0 μM): 0 pg/mL | IL-6 (0 μM): 0.435 pg/mL | IL-7 (0 μM): 3.95 pg/mL | IL-8 (0 μM): 971.01 pg/mL | IL-9 (0 μM): 25.865 pg/mL | IL-10 (0 μM): 3.085 pg/mL | IL-12 (0 μM): 98.495 pg/mL | IL-12ρ40 (0 μM): 0 pg/mL | IL-13 (0 μM): 3.34 pg/mL | IL-15 (0 μM): 0 pg/mL | IL-16 (0 μM): 0 pg/mL | IL-17 (0 μM): 0 pg/mL | IL-18 (0 μM): 0 pg/mL | IP-10 (0 μM): 6.19 pg/mL | LIF (0 μM): 0 pg/mL | M-CSF (0 μM): 3.725 pg/mL | MCP-1 (0 μM): 7.26 pg/mL | MCP-3 (0 μM): 0 pg/mL | MIF (0 μM): 6.92 pg/mL | MIG (0 μM): 3.09 pg/mL | MIP-1α (0 μM): 2.25 pg/mL | MIP-1β (0 μM): 1.32 pg/mL | PDGF-β (0 μM): 1.235 pg/mL | RANTES (0 μM): 12.86 pg/mL | SCF (0 μM): 0 pg/mL | SCGF-β (0 μM): 242.36 pg/mL | SDF-1α (0 μM): 13.03 pg/mL | TNF-α (0 μM): 4.9 pg/mL | TNF-β (0 μM): 0 pg/mL | TRAIL (0 μM): 3.43 pg/mL | VEGF (0 μM): 1384.84 pg/mL | β-NGF (0 μM): 1.04 pg/mL | effect on production of the 48 cytokines/chemokines (1 μM to 500 μM): did not affect the production | CTACK (5 μM): 4.29 pg/mL | Eotaxin (5 μM): 0 pg/mL | FGF (5 μM): 1.415 pg/mL | G-CSF (5 μM): 1.99 pg/mL | GM-CSF (5 μM): 6.24 pg/mL | GROα (5 μM): 0 pg/mL | HGF (5 μM): 5.43 pg/mL | IFN-α2 (5 μM): 3.58 pg/mL | IFN-γ (5 μM): 95.43 pg/mL | IL-1rα (5 μM): 10.215 pg/mL | IL-1α (5 μM): 0 pg/mL | IL-1β (5 μM): 0.31 pg/mL | IL-2 (5 μM): 0.105 pg/mL | IL-2rα (5 μM): 4.29 pg/mL | IL-3 (5 μM): 6.785 pg/mL | IL-4 (5 μM): 0.05 pg/mL | IL-5 (5 μM): 0 pg/mL | IL-6 (5 μM): 0.34 pg/mL | IL-7 (5 μM): 3.38 pg/mL | IL-8 (5 μM): 941.46 pg/mL | IL-9 (5 μM): 25.535 pg/mL | IL-10 (5 μM): 3.395 pg/mL | IL-12 (5 μM): 98.855 pg/mL | IL-12ρ40 (5 μM): 0 pg/mL | IL-13 (5 μM): 4.8 pg/mL | IL-15 (5 μM): 0 pg/mL | IL-16 (5 μM): 0 pg/mL | IL-17 (5 μM): 0 pg/mL | IL-18 (5 μM): 0 pg/mL | IP-10 (5 μM): 4.855 pg/mL | LIF (5 μM): 0 pg/mL | M-CSF (5 μM): 4.7 pg/mL | MCP-1 (5 μM): 5.105 pg/mL | MCP-3 (5 μM): 0 pg/mL | MIF (5 μM): 2.735 pg/mL | MIG (5 μM): 3.76 pg/mL | MIP-1α (5 μM): 2.105 pg/mL | MIP-1β (5 μM): 1.09 pg/mL | PDGF-β (5 μM): 0.865 pg/mL | RANTES (5 μM): 12.27 pg/mL | SCF (5 μM): 0 pg/mL | SCGF-β (5 μM): 258.645 pg/mL | SDF-1α (5 μM): 13.03 pg/mL | TNF-α (5 μM): 5.5 pg/mL | TNF-β (5 μM): 0 pg/mL | TRAIL (5 μM): 4.21 pg/mL | VEGF (5 μM): 1240.71 pg/mL | β-NGF (5 μM): 0.95 pg/mL | CTACK (10 μM): 3.45 pg/mL | Eotaxin (10 μM): 0 pg/mL | FGF (10 μM): 1.53 pg/mL | G-CSF (10 μM): 1.99 pg/mL | GM-CSF (10 μM): 6.65 pg/mL | GROα (10 μM): 0 pg/mL | HGF (10 μM): 5.43 pg/mL | IFN-α2 (10 μM): 4.08 pg/mL | IFN-γ (10 μM): 76.375 pg/mL | IL-1rα (10 μM): 14.085 pg/mL | IL-1α (10 μM): 0 pg/mL | IL-1β (10 μM): 0.33 pg/mL | IL-2 (10 μM): 0.305 pg/mL | IL-2rα (10 μM): 3.825 pg/mL | IL-3 (10 μM): 6.14 pg/mL | IL-4 (10 μM): 0.235 pg/mL | IL-5 (10 μM): 0 pg/mL | IL-6 (10 μM): 0.575 pg/mL | IL-7 (10 μM): 3.665 pg/mL | IL-8 (10 μM): 1115.205 pg/mL | IL-9 (10 μM): 26.025 pg/mL | IL-10 (10 μM): 3.17 pg/mL | IL-12 (10 μM): 103.16 pg/mL | IL-12ρ40 (10 μM): 0 pg/mL | IL-13 (10 μM): 4.145 pg/mL | IL-15 (10 μM): 0 pg/mL | IL-16 (10 μM): 0 pg/mL | IL-17 (10 μM): 0 pg/mL | IL-18 (10 μM): 0 pg/mL | IP-10 (10 μM): 7.165 pg/mL | LIF (10 μM): 0 pg/mL | M-CSF (10 μM): 4.805 pg/mL | MCP-1 (10 μM): 7.55 pg/mL | MCP-3 (10 μM): 0 pg/mL | MIF (10 μM): 1.06 pg/mL | MIG (10 μM): 3.76 pg/mL | MIP-1α (10 μM): 2.065 pg/mL | MIP-1β (10 μM): 1.555 pg/mL | PDGF-β (10 μM): 2.805 pg/mL | RANTES (10 μM): 12.995 pg/mL | SCF (10 μM): 0 pg/mL | SCGF-β (10 μM): 255.82 pg/mL | SDF-1α (10 μM): 11.41 pg/mL | TNF-α (10 μM): 6.985 pg/mL | TNF-β (10 μM): 0 pg/mL | TRAIL (10 μM): 5.025 pg/mL | VEGF (10 μM): 1530.905 pg/mL | β-NGF (10 μM): 0.86 pg/mL | CTACK (100 μM): 2.585 pg/mL | Eotaxin (100 μM): 0 pg/mL | FGF (100 μM): 1.635 pg/mL | G-CSF (100 μM): 1.885 pg/mL | GM-CSF (100 μM): 9.51 pg/mL | GROα (100 μM): 0 pg/mL | HGF (100 μM): 4.58 pg/mL | IFN-α2 (100 μM): 4.08 pg/mL | IFN-γ (100 μM): 89.85 pg/mL | IL-1rα (100 μM): 10.3 pg/mL | IL-1α (100 μM): 0 pg/mL | IL-1β (100 μM): 0.34 pg/mL | IL-2 (100 μM): 0.02 pg/mL | IL-2rα (100 μM): 3.245 pg/mL | IL-3 (100 μM): 5.495 pg/mL | IL-4 (100 μM): 0.33 pg/mL | IL-5 (100 μM): 0 pg/mL | IL-6 (100 μM): 0.255 pg/mL | IL-7 (100 μM): 4.495 pg/mL | IL-8 (100 μM): 783.255 pg/mL | IL-9 (100 μM): 22.305 pg/mL | IL-10 (100 μM): 3.505 pg/mL | IL-12 (100 μM): 99.355 pg/mL | IL-12ρ40 (100 μM): 0 pg/mL | IL-13 (100 μM): 3.735 pg/mL | IL-15 (100 μM): 0 pg/mL | IL-16 (100 μM): 0 pg/mL | IL-17 (100 μM): 0 pg/mL | IL-18 (100 μM): 0 pg/mL | IP-10 (100 μM): 0 pg/mL | LIF (100 μM): 0 pg/mL | M-CSF (100 μM): 4.725 pg/mL | MCP-1 (100 μM): 5.3 pg/mL | MCP-3 (100 μM): 0 pg/mL | MIF (100 μM): 1.06 pg/mL | MIG (100 μM): 2.75 pg/mL | MIP-1α (100 μM): 1.77 pg/mL | MIP-1β (100 μM): 1.26 pg/mL | PDGF-β (100 μM): 3.58 pg/mL | RANTES (100 μM): 12.205 pg/mL | SCF (100 μM): 0 pg/mL | SCGF-β (100 μM): 228.825 pg/mL | SDF-1α (100 μM): 11.41 pg/mL | TNF-α (100 μM): 5.465 pg/mL | TNF-β (100 μM): 0 pg/mL | TRAIL (100 μM): 5.025 pg/mL | VEGF (100 μM): 1469.495 pg/mL | β-NGF (100 μM): 0.95 pg/mL | CTACK (500 μM): 3.425 pg/mL | Eotaxin (500 μM): 3.21 pg/mL | FGF (500 μM): 1.925 pg/mL | G-CSF (500 μM): 2.3 pg/mL | GM-CSF (500 μM): 7.53 pg/mL | GROα (500 μM): 2.75 pg/mL | HGF (500 μM): 6.22 pg/mL | IFN-α2 (500 μM): 3.58 pg/mL | IFN-γ (500 μM): 98.775 pg/mL | IL-1rα (500 μM): 14.09 pg/mL | IL-1α (500 μM): 0 pg/mL | IL-1β (500 μM): 0.415 pg/mL | IL-2 (500 μM): 0.28 pg/mL | IL-2rα (500 μM): 4.39 pg/mL | IL-3 (500 μM): 6.785 pg/mL | IL-4 (500 μM): 0.295 pg/mL | IL-5 (500 μM): 0 pg/mL | IL-6 (500 μM): 0.79 pg/mL | IL-7 (500 μM): 4.66 pg/mL | IL-8 (500 μM): 1219.13 pg/mL | IL-9 (500 μM): 30.4 pg/mL | IL-10 (500 μM): 4.165 pg/mL | IL-12 (500 μM): 121.285 pg/mL | IL-12ρ40 (500 μM): 0 pg/mL | IL-13 (500 μM): 4.555 pg/mL | IL-15 (500 μM): 0 pg/mL | IL-16 (500 μM): 0 pg/mL | IL-17 (500 μM): 0 pg/mL | IL-18 (500 μM): 0 pg/mL | IP-10 (500 μM): 10.765 pg/mL | LIF (500 μM): 0 pg/mL | M-CSF (500 μM): 3.995 pg/mL | MCP-1 (500 μM): 5.165 pg/mL | MCP-3 (500 μM): 0 pg/mL | MIF (500 μM): 5.26 pg/mL | MIG (500 μM): 3.09 pg/mL | MIP-1α (500 μM): 2.04 pg/mL | MIP-1β (500 μM): 1.655 pg/mL | PDGF-β (500 μM): 6.19 pg/mL | RANTES (500 μM): 13.835 pg/mL | SCF (500 μM): 0 pg/mL | SCGF-β (500 μM): 128.865 pg/mL | SDF-1α (500 μM): 11.41 pg/mL | TNF-α (500 μM): 10.49 pg/mL | TNF-β (500 μM): 0 pg/mL | TRAIL (500 μM): 3.43 pg/mL | VEGF (500 μM): 1814.38 pg/mL | β-NGF (500 μM): 0.995 pg/mL
